Values joined by “and” are separate entries in the source; they are usually repeats but may differ in a detail not shown here. Equal values may be shown once. Read-outs that look alike come from different tables or passages of the source. Marks after values point to notes of the source that are not given here. Ends that are not written are not given here.
Tests used:
[1] = tested on: Mycobacterium tuberculosis H37Rv (ATCC 27294); conditions: literature value ref Rastogi, et al., 1996 [55]; cited from earlier work
[2] = tested on: Escherichia coli (ATCC 25922)
[3] = tested on: Staphylococcus aureus (ATCC 25923)
[4] = tested on: Mycobacterium tuberculosis H37Rv (ATCC 27294); conditions: 24 h
human red blood cells = assay: Hemolytic assay; format: cell-based; conditions: 1 h at room temperature; for hemolysis of human erythrocytes: relative to 10% Triton X-100, average of at least four independent experiments; for IC50: human red blood cells, absorbance 570 nm, vs 10% Triton X-100, mean and 95% confidence intervals, NO = no observed hemolytic activity at 100 µM, read-out: Hemolysis (IC50)
Protocol: Hemolytic activity was determined by incubating suspensions of human red blood cells with serial dilutions of each selected peptides. Red blood cells were rinsed several times in PBS by centrifugation for 3 min at 3,000 g until the OD of the supernatant reached the OD of the control (PBS only). Red blood cells were counted by a hemocytometer and adjusted to 7.7×10^6±0.3×10^6 cells/mL. Red blood cells were then incubated at room temperature for 1 h in 10% Triton X-100 (positive control), in PBS (blank), or with amphipathic peptides at concentrations of 0.4, 0.8, 1.6, 3.1, 6.2, 12.5 and 25 µM, only for Pin2 [14] and Pin2 [17] the 50 and 100 µM concentrations were evaluated. The samples were then centrifuged at 10,000 g for 5 min, the supernatant was separated from the pellet, and its absorbance measured at 570 nm. The relative optical density compared to that of the suspension treated with 10% Triton X-100 was defined as the percentage of hemolysis.
The experimental values represent means ± standard deviations. The hemolytic constants (IC50) were obtained using a non-linear regression where the data was fit to a Boltzmann sigmoid equation. To determine statistically significant differences, an analysis of variance (ANOVA) followed by post hoc testing using the Tukey's method was performed using the software package Prism 4 (GraphPad, Inc., USA). Statistical significances were accepted at p<0.05.

[5] = tested on: Escherichia coli (ATCC 25922); conditions: ATCC 25922, 10 h
[6] = tested on: Staphylococcus aureus (ATCC 25923); conditions: ATCC 25923, 10 h

CC[C@@H](CO)NCCN[C@@H](CC)CO [Ethambutol]
MIC Mycobacterium tuberculosis H37Rv [1]: 0.5 µg/mL and 2.5 µM

CO[C@H]1/C=C/O[C@@]2(C)Oc3c(C)c(O)c4c(O)c(c(/C=N/N5CCN(C)CC5)c(O)c4c3C2=O)NC(=O)/C(C)=C\C=C\[C@H](C)[C@H](O)[C@@H](C)[C@@H](O)[C@@H](C)[C@H](OC(C)=O)[C@@H]1C [Rifampicin]
MIC Mycobacterium tuberculosis H37Rv [1]: 0.4 µg/mL and 0.5 µM

FWGALAKGALKLIGPGSLFSSFSKKD [Pin2 [GPG]]
MIC E. coli [2]: 25 µM
MIC S. aureus [3]: 25 µM
MIC Mycobacterium tuberculosis H37Rv [4]: 29 ± 9 µM
hemolysis of human erythrocytes (human red blood cells; peptide at 25 µM): 30%
MIC E. coli [5]: 12.5 µM
MIC S. aureus [6]: 12.5 µM

FWGALAKGALKLIGSLFSSFSKKD [Pin2 [G]]
MIC E. coli [2]: 12.5 µM
MIC S. aureus [3]: 12.5 µM
MIC Mycobacterium tuberculosis H37Rv [4]: 18.7 µM
IC50 (human red blood cells): 1.4 µM
hemolysis of human erythrocytes (human red blood cells; peptide at 25 µM): 100%
MIC E. coli [5]: 12.5 µM
MIC S. aureus [6]: 12.5 µM

FWGALAKGALKLIPSLFSSFSKKD [Pin2, Pandinin 2, reference compound]
MIC E. coli [2]: 18.8 µM
MIC S. aureus [3]: 37.5 µM
MIC Mycobacterium tuberculosis H37Rv [4]: 22.1 ± 8.6 µM
IC50 (human red blood cells): 3.3 µM
hemolysis of human erythrocytes (human red blood cells; peptide at 25 µM): 91%
MIC E. coli [5]: 12.5 µM
MIC S. aureus [6]: 12.5 µM

FWGLKGLKGPGKFSKKL [Pin2 [17]]
MIC E. coli [2]: 25 µM
MIC S. aureus [3]: 80 µM
MIC E. coli [5]: >25 ^† µM
MIC S. aureus [6]: >25 µM

FWGLKGLKKFSKKL [Pin2 [14]]
MIC E. coli [2]: 25 µM
MIC S. aureus [3]: >300 µM
MIC Mycobacterium tuberculosis H37Rv [4]: 11.92 ± 3.7 µM
hemolysis of human erythrocytes (human red blood cells; peptide at 100 µM): 25%
MIC E. coli [5]: 25 µM
MIC S. aureus [6]: >25 ^† µM

— PMC4096598 (PLoS ONE, 2014)
